Read-outs that look alike come from different tables or passages of the source.
Assays:
DA NPCs [1] = assay type: cell-based
Excerpt: FGF8 and SHH are not sufficient for expanding DA NPCs: To determine if and how the DA NPCs can be expanded, a CKK8-based assay for quantifying cell numbers was first established. This assay was based on the absorbance readout from a plate reader to estimate the total cell number by monitoring mitochondrial activity, which was used for primary screening/testing for candidate molecules and validating the hits (FIG. 2A).
The optimal seeding density was first determined by plating increasing numbers of DA NPCs to each well. […] The absorbance reached a plateau when the seeding density was beyond 120,000 cell/well (FIG. 2B), and 20,000 cells/well were used for subsequent assays. Using this optimal seeding density (20,000/well), well-to-well and plate-to-plate variation (FIG. 2C) was examined. There were no obvious well-to-well and plate-to-plate variations (FIG. 2C).
Chemical screening identifies an additional compound that expands DA NPCs: The chemical screening platform was set up using FGF8+SHH as a basal condition, FGF8+SHH+DMSO as a control, and FGF8+SHH+1 as the screening mode. With the standardized screening platform (FIG. 3A), 1,200 small molecules (Tocris Total) were screened and the top 5 candidate compounds that increased the absorbance by >2 folds over the median absorbance (FIG. 3B) were identified. […] induced a 5-fold expansion on top of FGF8+SHH (FIG. 3D). We referred to it as the “FSW” cocktail.
Generation and expansion of DA NPCs: DA NPCs were generated as previously described, in particular FGF8b was added from Day 9 (Chen et al., 2016; Xi et al., 2012) (FIG. 1A). The generated DA NPCs were passaged at 10^6 cells/well on a MATRIGEL™ (1:30; PBS diluted and store in 4° C. for use in 2 weeks) coated 6-well plate as the first passage. After overnight, incubation, the medium was switched to the FSCW cocktail in the expansion medium. FSCW cocktail contained FGF8b (50 ng/ml; Peprotech), SHH (25 ng/ml; Peprotech), CHIR (0.6 μM; Tocris) and WNT-C59 (0.5 μM: Tocris). The expansion medium consisted of DF12 basal medium (ThermoFisher), B27 (100×; ThermoFisher), Glutamax (100×; ThermoFisher) and NEAA (100×; ThermoFisher). The cells were passaged every 5 days at the ratio of 1:3. To digest the cells, the cultures were incubated in PBS-diluted EDTA (1:100; Thermo) at 37° C. for 5 minutes before lifting the cells by adding 2 ml DF12 basal medium using cell lifter (Coring) and collecting the cells into a centrifuge tube. Following centrifugation at 1000 rpm for 2 minutes and removal of the supernatant, the cells were resuspended in the expansion medium with FSCW cocktail and seeded onto the coated plates as described above. Y27632 (10 uM; Tocris) was added overnight to improve cell survival.

DA NPCs [2] = assay: DA NPC identity by immunostaining of DA marker co-expression; assay type: cell-based, human
Experimental: Immunostaining and Quantification: Cells on coverslips/wells were rinsed with PBS and fixed in 4% paraformaldehyde for 20 minutes. After rinsing with PBS twice, cells were treated with 0.3% Triton for 10 min followed by 10% donkey serum for 1 hour before incubating with primary antibodies overnight at 4° C. Cells were then incubated for 1 hour at room temperature with fluorescently-conjugated secondary antibodies (Life Technologies). The nuclei were stained with Hoechst (Ho) (Sigma-Aldrich). Images were taken with a Nikon A1R-Si laser-scanning confocal microscope (Nikon, Tokyo, Japan). The primary antibodies used include the followings: Goat anti-OTX2 (1:1000, R&D), Rabbit anti-LMX1A (1:500, Abcam), […], Goat anti-FOXA2 (1:500, Santa Cruz), Mouse anti-EN1 (1:200, 4G11-C, DSHB), Rat anti-Corin (1:100, R&D Systems), Rabbit anti-TH (1:500, Pel-Freez Biologicals), Mouse anti-TUJ1 (1:500, Santa Cruz Biotechnology), Mouse anti-MAP2 (1:200, Sigma-Aldrich), Rabbit anti-GIRK2 (1:80, Alomone Labs), Rabbit anti-SOX6 (1:1000, Sigma-Aldrich), Mouse anti-Stem121 (1:500, Clonetech). For quantifying DA NPC populations, cells were counted among the total Hoechst labeled nuclei. Three independent cultures (n=3) were analyzed.

[3] = FGF2 alone, 10 to 200 ng/ml, one passage in 5 days

Cc1cc(-c2ccc(CC(=O)Nc3ccc(-c4cccnc4)cc3)cc2)ccn1 [WNT-C59]
expansion on top of FGF8+SHH (DA NPCs [1]; WNT-C59 "At 2" (unit not given), FSW cocktail): 5 fold | concentration of maximum effect in the cocktail (DA NPCs [1]; WNT-C59 titration in FSCW cocktail): 0.5 µM | DA identity after induced expansion (co-expression of LMX1A and OTX2) (DA NPCs [2]; on top of FGF8+SHH, 1 passage, 5 days, ratio 1:3): maintained DA identity

Cc1c[nH]c(-c2cnc(NCCNc3ccc(C#N)cn3)nc2-c2ccc(Cl)cc2Cl)n1 [CHIR, CHIR99021]
expansion of DA NPCs (DA NPCs [1]; CHIR alone, range of doses): expanded the DA NPCs | expansion of DA NPCs (DA NPCs [1]; CHIR at a low dose (0.6 μM)): expanded the DA NPCs | dose window in which DA NPC identity (co-expression of LMX1A and OTX2) was retained (DA NPCs [2]; CHIR alone): 0.6 µM | DA identity (DA NPCs [2]; CHIR alone, concentrations lower or higher than 0.6 μM): loss of DA identity | cellular identity of DA NPCs (DA NPCs [2]; CHIR at a low dose (0.6 μM)): did not alter their cellular identity

FGF2: growth factor reported for expanding pan-NPCs or specified NPCs
cell proliferation (DA NPCs [1]; [3]): induced dramatic cell proliferation | DA NPC identity (co-expression of LMX1A and OTX2) (DA NPCs [2]; [3]): loss of co-expression of LMX1A and OTX2

From patent US20210222123A1, “IN VITRO EXPANSION OF DOPAMINERGIC SUBTYPE NEURONAL PROGENITORS DERIVED FROM PLURIPOTENT STEM CELLS” (Wisconsin Alumni Research Foundation, priority 2019, published 2021)
